In patent US20240208898A1, “ENAMINE N-OXIDES: SYNTHESIS AND APPLICATION TO HYPOXIA-RESPONSIVE PRODRUGS AND IMAGING AGENTS” (DANA-FARBER CANCER INSTITUTE, INC., priority 2021, published 2024):

Test system: BxPC-3 pancreatic cancer cell line
Assay: In-gel fluorescence imaging of cells labeled by enamine N-oxides
Format: cell-based
Method: Cells were seeded at a density of 200,000 cells per well in media [2 mL, RPMI (A431, H460, HeLa, Bx-PC3, MDA-MB-231) or DMEM (U251) supplemented with 5% heat-inactivated human serum (Sigma), penicillin (100 units/mL), and streptomycin (0.1 mg/mL)] in 6-well plates. Cells were incubated at 37° C. under ambient atmosphere with 5% CO2. After 24 h, the media was aspirated and replaced with fresh media [1 mL, RPMI (A431, H460, HeLa, Bx-PC3, MDA-MB-231) or DMEM (U251) supplemented with 5% heat-inactivated human serum, penicillin (100 units/mL), and streptomycin (0.1 mg/mL)] containing enamine N-oxide probe (200 mM in ethanol; 10 μM final concentration). Plates were then incubated at 37° C. under ambient (20% pO2) or various oxygenated conditions (5%, 1%, or 0.1% pO2) with 5% CO2. Oxygenated conditions were maintained using a hypoxia chamber (ProOx C21, Biospherix) in a cell culture incubator. […] PBS (1 mL) was then added to each well and cells were scraped off with a cell scraper. The cell suspensions were placed into microcentrifuge tubes and pelleted by spinning at 10,000×g for 5 minutes at 4° C. The supernatant was then removed, and the pellet was dissolved with an SDS solution (100 μL, 1% SDS in 50 mM Tris buffer, pH 8.0). The protein concentration was determined by BCA assay following the manufacturer's protocol (Pierce). The sample was then labeled using the copper-catalyzed azide-alkyne cycloaddition (CuAAC). […] The dried pellet was then resuspended in an SDS solution (50 μL, 1% SDS in 50 mM Tris, pH 8.0), and the protein concentration was determined by BCA assay. […] In-gel fluorescence was visualized by a laser scanner (Typhoon™ FLA 9500, GE) and quantified using ImageJ software. […] Detection was mediated by an anti-rabbit IR680-dye conjugated secondary antibody (LI-COR Biosciences, 925-68071) and imaged using a fluorescence scanner (Odyssey CLx, LI-COR Biosciences).

Row | SMILES | labeling in cell culture (oxygen dependence) (BxPC-3, 48 h) | oxygen tension of probe activation (BxPC-3, over 48 h, CuAAC with TAMRA-azide) | labeling of cells under normoxia and hypoxia (Bx-PC3 cells, 10 μM, 12 h, in-gel fluorescence after CuAAC with TAMRA-azide)
1 | C#CCCCCC(F)/C=C/[N+]([O-])(CC)CC (stereo not drawn) [probe 39, (E)-N,N-diethyl-3-fluoronon-1-en-8-yn-1-amine oxide] | oxygen-dependent labeling | ca. 1 % pO2 | –
2 | C#CCN(CCCCCC(F)/C=C/[N+]([O-])(CC)CC)C(=O)c1ccc(C2=c3cc4c(cc3[Si](C)(C)c3cc5c(cc32)CCN5C)=[N+](C)CC4)c(C)c1 (stereo not drawn) [probe 42, Si700-enamine N-oxide] | – | – | labeled Bx-PC3 cells in a hypoxia-dependent manner
